Key:
UGT1A3 = molecular target: T1, UGT1A3 (Homo sapiens, UniProt P35503); experiment: recombinant UGT 4-MU glucuronidation, HPLC, single concentration […]; type: biochemical; details: read-out: 1A3
T1 sequence (P35503 29-534): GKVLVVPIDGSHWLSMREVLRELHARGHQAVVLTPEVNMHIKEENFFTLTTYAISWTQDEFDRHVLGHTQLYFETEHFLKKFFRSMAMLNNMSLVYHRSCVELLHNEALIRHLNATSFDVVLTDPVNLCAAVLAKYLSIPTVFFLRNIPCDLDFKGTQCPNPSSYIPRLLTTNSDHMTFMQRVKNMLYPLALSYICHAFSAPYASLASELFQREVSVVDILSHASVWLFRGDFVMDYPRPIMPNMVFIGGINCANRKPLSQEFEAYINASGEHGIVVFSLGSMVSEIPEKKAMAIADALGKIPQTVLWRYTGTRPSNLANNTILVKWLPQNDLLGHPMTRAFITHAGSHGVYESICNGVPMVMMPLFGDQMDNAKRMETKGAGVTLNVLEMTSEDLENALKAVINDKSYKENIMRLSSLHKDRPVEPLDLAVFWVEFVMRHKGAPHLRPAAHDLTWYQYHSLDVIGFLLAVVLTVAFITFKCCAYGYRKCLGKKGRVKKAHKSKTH

UGT2B7 = molecular target: T2, UGT2B7 (Homo sapiens, UniProt P16662); experiment: as above; type: biochemical; details: read-out: 2B7
T2 sequence (P16662 24-529): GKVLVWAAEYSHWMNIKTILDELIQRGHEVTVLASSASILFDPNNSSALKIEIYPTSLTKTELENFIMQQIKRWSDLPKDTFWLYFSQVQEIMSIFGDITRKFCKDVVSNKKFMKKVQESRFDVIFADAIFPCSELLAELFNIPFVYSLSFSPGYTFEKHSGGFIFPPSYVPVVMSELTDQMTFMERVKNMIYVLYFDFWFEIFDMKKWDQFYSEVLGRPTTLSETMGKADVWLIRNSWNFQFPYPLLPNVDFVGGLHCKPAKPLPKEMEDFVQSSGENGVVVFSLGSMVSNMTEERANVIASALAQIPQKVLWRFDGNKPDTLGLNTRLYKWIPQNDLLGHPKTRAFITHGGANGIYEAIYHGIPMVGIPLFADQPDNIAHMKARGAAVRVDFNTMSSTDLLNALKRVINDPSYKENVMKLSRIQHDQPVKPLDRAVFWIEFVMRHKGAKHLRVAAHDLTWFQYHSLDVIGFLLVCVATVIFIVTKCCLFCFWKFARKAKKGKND

## COc1cc2c(c(OC)c1OC)-c1c(cc(OC)c(OC)c1OC)C[C@H](C)[C@H](C)C2 [schisandrin A]
UGT1A3
  activity at 100 µM: 0%

## COc1cc2c(c(O)c1OC)-c1c(cc(OC)c(OC)c1OC)C[C@@H](C)[C@@H](C)C2 [schisanhenol]
UGT2B7
  activity at 100 µM: 7.9%
